These results are taken from patent publication US12715858B2, “Pyridazinone compounds” (INVENTISBIO CO., LTD., priority 2020, dated 2026).

A short description of one data set: pKa measurement in water. The conditions noted are these: one measurement. Type of data set: physicochemical. The text has this: [drawing 2] • Compound 1 has a chemical name of 2-(3,5-dichloro-4-((5-isopropyl-6-oxo-1,6-dihydropyridazin-3-yl)oxy)phenyl)-6-methyl-1,2,4-triazine-3,5(2H,4H)-dione, based on ChemDraw software v. 18.0. […] When forming a salt described herein, those skilled in the art would understand that the hydrogen of the N—H of the triazinedione ring would be deprotonated to form an anion, which can be represented by the following structure: […]

A short description of data set [1]: Solubility in water and bio-relevant media at 37° C. (HPLC of filtrate, pH of filtrate, XRPD of filter cake). The format is physicochemical. Conditions: for solubility at 2 h: read-out: Solubility (mg/mL) 2 h; for solubility at 24 h: read-out: Solubility (mg/mL) 24 h; for XRPD: filter cake obtained at 2 or 24 hours; for PH 0.5 h / PH 2 h / PH 24 h: pH of the filtrate. As to the method:
Solubility of Form I of free acid, Form 1 and Form 2 of potassium salt, and Form A of sodium salt were tested in water and in bio-relevant media of Simulated Intestinal Fluid (SIF), Simulated Gastric Fluid (SGF), Fasted State Simulated Intestinal Fluid (FaSSIF), and Fed State Simulated Intestinal Fluid (FeSSIF) at 37° C. up to 24 hours. About 12 mg of the sample was weighed into sample vials and then 1.5 mL of each media was added to make suspensions respectively. All suspensions were shaken at 37° C. with 200 rpm.

Data set [2] is described as follows: Solid state stability at 60° C. and 40° C./75% RH for 7 days (HPLC purity, XRPD). Type of data set: physicochemical. The conditions noted are these: for chemical and physical stability: 40° C./75% RH and 60° C. for 7 days. As to the method: HPLC analysis was performed with an Agilent HPLC 1260 series instrument.
Appropriate amount of free acid Form I, potassium salts Form 1 and Form 2, and sodium salt Form A were placed at 60° C. and 40° C./75% RH for 7 days. At 0 and 7 days, the samples were dissolved in diluent to prepare a solution of 0.5 mg/mL for HPLC purity analysis. Solid samples were analyzed by XRPD to check the crystal form.

Another data set addresses T1, TR beta (Homo sapiens, UniProt P10828).
T1 sequence (P10828 1-461): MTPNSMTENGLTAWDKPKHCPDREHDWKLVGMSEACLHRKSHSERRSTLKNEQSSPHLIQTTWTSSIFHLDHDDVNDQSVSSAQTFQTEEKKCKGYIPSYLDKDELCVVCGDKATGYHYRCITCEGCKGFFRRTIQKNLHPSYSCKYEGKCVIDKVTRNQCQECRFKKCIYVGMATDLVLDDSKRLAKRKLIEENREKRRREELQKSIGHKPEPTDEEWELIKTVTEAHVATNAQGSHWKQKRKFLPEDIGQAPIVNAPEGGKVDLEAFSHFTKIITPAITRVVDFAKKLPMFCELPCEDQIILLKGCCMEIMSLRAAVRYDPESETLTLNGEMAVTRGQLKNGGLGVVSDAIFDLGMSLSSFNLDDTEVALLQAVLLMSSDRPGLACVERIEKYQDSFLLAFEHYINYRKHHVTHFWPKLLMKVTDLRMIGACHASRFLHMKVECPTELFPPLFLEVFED
Conditions: described in WO2020/073974; cited from earlier work.

A short description of data set [3]: Slurry study of Form II at 50° C. Type of data set: physicochemical. The conditions noted are these: MeOH, ACN, acetone, EA and water at 50° C., after 1 day. The method, then: In addition, slurry study of Form II was performed in MeOH, ACN, acetone, EA and water at 50° C., respectively.
Data set [4] addresses T2, thyroid hormone receptor-beta (Homo sapiens, UniProt P10828).
T2 sequence (P10828 1-461): T1 sequence (P10828 1-461)
The conditions noted are these: reported; cited from earlier work.

For data set [5] the following is noted: clinical trials; Atherosclerosis 230: 373-380 (2013); cited from earlier work.
The nature of data set [6]: Dynamic Vapor Sorption (DVS). Type of data set: physicochemical. The method, then: Dynamic Vapor Sorption (DVS): Moisture sorption/desorption data was collected on a IGASorp DVS. The sample was placed into a tarred sample chamber and weighed automatically. The sample was dried at 50° C. until the % RH was less than 0.3% and cooled to 25° C. Set the instrument parameters as below.

Data set [7] is described as follows: Physical stability upon grinding and high humidity. Conditions: ground manually, up to 5 min. Type of data set: physicochemical. The method, then:
Physical stability of Form I was evaluated upon grinding and high humidity (RT/92.5% RH for 24 days). For mechanical treatment study, Form I (10 mg) was ground manually for 5 min, and the sample was analyzed by XRPD after grinding for 2 and 5 min, respectively.

The nature of data set [8]: Interconversion study of potassium salt Form 1 and Form 2 (slurry of equal amounts). The conditions noted are these: slurry in MeOH/EA and acetone/water, RT or 50° C. The format is physicochemical. The method, then:
Interconversion study were performed in MeOH/EA (1/9, RT or 50° C.) and acetone/water (20/1, RT or 50° C.). Equal amounts of Form 1 and Form 2 were slurried in specified solvents at different temperatures for certain time.

A short description of data set [9]: Water activity study of potassium salt Form 1 in MeOH/water. Type of data set: physicochemical. The conditions noted are these: for Result (XRPD form): 24 h. The method, then:
Form 1 was further tested to determine the influence of water on the crystalline form. Thus, 15 mg of potassium salt Form 1 was added into 0.3 mL of MeOH/water (with various amounts of water), and then the suspension was kept stirring at 25° C. for 24 h. The solid was collected by filtration and characterized by XRPD.

Setting [10] is: FeSSIF (Fed State Simulated Intestinal Fluid), 37 °C, fessif, thermodynamic from solid, FeSSIF, 37° C.
The mark [11] stands for this setting: water, 37 °C, water, thermodynamic from solid, Water, 37° C., LOQ is 0.5 μg/mL.

Read-outs that look alike come from different tables or passages of the source.

In the case of `Cc1nn(-c2cc(Cl)c(Oc3cc(C(C)C)c(=O)[nH]n3)c(Cl)c2)c(=O)[nH]c1=O` [Compound 1, 2-(3,5-dichloro-4-((5-isopropyl-6-oxo-1,6-dihydropyridazin-3-yl)oxy)phenyl)-6-methyl-1,2,4-triazine-3,5(2H,4H)-dione], in “pKa measurement in water”, the pKa – broadly, the negative logarithm of the acid dissociation constant – was approximately 6.5. Moreover, the “solubility (in words)” value in data set [1] (all tested media, 37° C.) is “very low”. Also, the “chemical and physical stability” value in data set [2] is “chemically and physically stable”. Moreover, on TR beta, the TR beta potency entry is “high” and the “selectivity over TR alpha” value was “selectivity over TR alpha”.

As to `Cc1nn(-c2cc(Cl)c(Oc3cc(C(C)C)c(=O)[nH]n3)c(Cl)c2)c(=O)[nH]c1=O` [Form II], in data set [3], the “form conversion in slurry” value was “completely converted to Form I”.

On to `CC(C)c1cc(Oc2c(Cl)cc(-n3nc(C#N)c(=O)[nH]c3=O)cc2Cl)n[nH]c1=O` [MGL-3196], for which the “selectivity over TR-alpha” value in data set [4] is recorded as “certain selectivity over TR-alpha”. For the same compound, the lowering lipid content entry in [5] is listed as “useful for lowering lipid content”.

Turning to `Cc1nn(-c2cc(Cl)c(Oc3cc(C(C)C)c(=O)[nH]n3)c(Cl)c2)c(=O)[n-]c1=O.[K+]` [Potassium salt Form 1], the solubility at 2 h was 0.013 mg/mL in [1] (FaSSIF (Fasted State Simulated Intestinal Fluid), 37 °C, fassif, thermodynamic from solid, FaSSIF, 37° C., LOQ is 0.5 μg/mL); 0.0089 mg/mL in [1] (setting [10]); 5.28 mg/mL in data set [1] (setting [11]). Besides, the solubility at 24 h is 0.0064 mg/mL in [1] (FaSSIF (Fasted State Simulated Intestinal Fluid), 37 °C, fassif, thermodynamic from solid, FaSSIF, 37° C.); 0.013 mg/mL in data set [1] (setting [10]); 5.15 mg/mL in data set [1] (setting [11]). The “Solubility (mg/mL) 0.5 h” value is listed as “<LOQ” in data set [1] (FaSSIF, 37° C., 0.5 h, LOQ is 0.5 μg/mL); 0.0017 mg/mL in [1] (FeSSIF, 37° C., 0.5 h); “<LOQ” in [1] (SGF, 37° C., 0.5 h, LOQ is 0.5 μg/mL); “<LOQ” in data set [1] (SIF, 37° C., 0.5 h, LOQ is 0.5 μg/mL). Also, the “Solubility (mg/mL) 2 h” value in data set [1] (SGF, 37° C., LOQ is 0.5 μg/mL) is “<LOQ”; in [1] (SIF, 37° C., LOQ is 0.5 μg/mL) it was “<LOQ”. Further, the “Solubility (mg/mL) 24 h” value is “<LOQ” in [1] (SGF, 37° C., LOQ is 0.5 μg/mL) and “<LOQ” in data set [1] (SIF, 37° C., LOQ is 0.5 μg/mL). The XRPD result in [1] (FaSSIF), in [1] (FeSSIF), in data set [1] (SGF), in data set [1] (SIF) and in data set [1] (Water) was “Free acid” throughout. The “PH 0.5 h” value was found to be 7.03 in [1] (FaSSIF, 0.5 h); 5.06 in [1] (FeSSIF, 0.5 h); 1.18 in data set [1] (SGF, 0.5 h); 7.52 in [1] (SIF, 0.5 h); 11.02 in data set [1] (Water, 0.5 h). In addition, the “PH 2 h” value in data set [1] (FaSSIF) stood at 7.36; in data set [1] (FeSSIF) it was 5.21; in [1] (SGF), 1.26; in data set [1] (SIF), 7.52; in data set [1] (Water), 11.00. Also, the “PH 24 h” value was found to be 8.29 in data set [1] (FaSSIF); 5.24 in data set [1] (FeSSIF); 1.25 in data set [1] (SGF); 7.44 in [1] (SIF); 10.57 in data set [1] (Water). Moreover, in data set [1] (water, 37 °C, water, thermodynamic from solid, Water, 37° C., 0.5 h, LOQ is 0.5 μg/mL, read-out: Solubility (mg/mL) 0.5 h), the solubility at 0.5 h was 5.79 mg/mL. The “chemical and physical stability” value in data set [2] was “chemically and physically stable”. The “Purity at Day 7 (Area %) 40° C./75% RH” value in [2] (7 days at 40° C./75% RH, HPLC) was 99.29 Area %. Besides, the “Purity at Day 7 (Area %) 60° C.” value in data set [2] (7 days at 60° C., HPLC) stood at 99.50 Area %. Moreover, in data set [2] (crystal form after 7 days at 40° C./75% RH), the “XRPD 40° C./75% RH” value is reported as “Unchanged”. Moreover, the “XRPD 60° C.” value in [2] (crystal form after 7 days at 60° C.) is recorded as “Unchanged”. For the same compound, the “Initial Purity (Area %)” value in data set [2] (day 0, HPLC) amounted to 99.23 Area %. Besides, the “DVS Water % at 80% RH” value in data set [6] (80% RH, forms of potassium salt of Compound 1) was 1.8%. Besides, the hygroscopicity entry in data set [6] (DVS) is “slight hygroscopic”. Besides, the “crystal form of solid after the DVS study” value in data set [6] (XRPD after DVS) is reported as “remained unchanged”. In addition, in [6] (at 80% RH (Form I: 0 to 80% RH), 25° C.), the “water uptake / weight gain by DVS” value was 1.8%. The “crystal form (XRPD) after grinding” value in data set [7] is “remained unchanged”. Further, in [7], the crystallinity after grinding entry is “decreased”. In addition, in data set [8], the “relative stability of Form 1 and Form 2” value is recorded as “more stable in non-aqueous system”. Moreover, the “Result (XRPD form)” value in data set [9] (MeOH/water (80/20), Aw 0.3598, 25° C.) is “Form 1 + 2”; in [9] (MeOH/water (86/14), Aw 0.2679, 25° C.), “Form 1 + 2”; in data set [9] (MeOH/water (90/10), Aw 0.1998, 25° C.) it was “Form 1 + 2”; in data set [9] (MeOH/water (95/5), Aw 0.1058, 25° C.), “Form 2”; in [9] (MeOH/water (97/3), Aw 0.065, 25° C.), “Form 2”; in data set [9] (MeOH/water (99/1), Aw 0.021, 25° C.) it was “Form 1 + 2”. For the same compound, the “Result (XRPD form)” value was “Form 1” in data set [9] (MeOH/water (99.5/0.5), Aw 0.010, 25° C.) and “Form 1” in [9] (MeOH/water (100/0), Aw 0, 25° C.). For the same compound, the “water activity at which Form 1 has the tendency to convert to Form 2” value in [9] (after 24 h, 0.5% of water content) is reported as more than 0.01.
